Test results from patent publication US20180194762A1 (Pharmacyclics LLC, priority 2017, published 2018).

Columns and labels:
Type in all cases: biochemical
TEC = target: T1, TEC (Homo sapiens, UniProt P42680); test: Inhibition of a panel of kinases (in vitro HotSpot kinase assay, 33P-ATP, 1 μM ATP); settings: HotSpot kinase assay, 1 μM ATP
T1 sequence (P42680 1-631): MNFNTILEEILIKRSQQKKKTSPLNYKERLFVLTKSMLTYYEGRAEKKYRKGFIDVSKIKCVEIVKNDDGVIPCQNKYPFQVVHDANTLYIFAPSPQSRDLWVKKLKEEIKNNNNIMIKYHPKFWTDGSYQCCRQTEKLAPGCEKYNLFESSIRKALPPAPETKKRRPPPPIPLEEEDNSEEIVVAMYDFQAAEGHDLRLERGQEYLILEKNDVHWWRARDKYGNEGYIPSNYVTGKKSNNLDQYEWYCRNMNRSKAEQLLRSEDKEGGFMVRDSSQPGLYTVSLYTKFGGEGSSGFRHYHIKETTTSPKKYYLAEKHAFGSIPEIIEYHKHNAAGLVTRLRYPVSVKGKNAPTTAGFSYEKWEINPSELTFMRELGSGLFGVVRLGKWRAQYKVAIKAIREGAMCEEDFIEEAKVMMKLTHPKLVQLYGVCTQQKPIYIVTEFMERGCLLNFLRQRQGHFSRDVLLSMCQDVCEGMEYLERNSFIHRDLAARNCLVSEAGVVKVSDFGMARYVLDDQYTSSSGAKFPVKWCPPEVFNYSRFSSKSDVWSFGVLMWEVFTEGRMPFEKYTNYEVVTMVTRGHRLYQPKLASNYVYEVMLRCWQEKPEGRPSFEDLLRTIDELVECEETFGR
Method in brief: (§1)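 Purified kinase enzymes were incubated with an appropriate substrate and 33P-labelled ATP at 1 μM ATP. Inhibition was measured radiometrically from incorporation of the 33P label.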

Btk = target: T2, Btk (Homo sapiens, UniProt Q06187); test: Btk in vitro inhibitory activity (one of Method A TR-FRET, Method B electrophoretic mobility shift, Method C radiometric filter binding); settings: wild-type Btk; read-out: Btk-WT IC50
T2 construct: purified from insect cells as a full-length construct containing a N-terminal 6X-His tag; His6 (N); made in house; host or cells: insect cells (Method C)
Method in brief: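 Method A: TR-FRET with 0.5 nM Btk at [ATP]=Km, EDTA-quenched, 665/615 nm ratio; Ki(app) converted to IC50. Method B: 1 nM full-length His6 human BTK, 1 μM FAM peptide, pH 7.5, mobility-shift product/sum ratio, 12-point 4-parameter fit. Method C: radiometric filter binding, 8 nM His-tagged BTK, 0.2 mg/mL poly-Glu-Tyr.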

panel of kinases = target: T3, panel of kinases (Homo sapiens, UniProt P51813); test: Inhibition of a panel of kinases (in vitro HotSpot kinase assay, 33P-ATP, 1 μM ATP), other kinases; settings: BMX wild-type, read-out: BMX-WT IC50
T3 sequence (P51813 1-675): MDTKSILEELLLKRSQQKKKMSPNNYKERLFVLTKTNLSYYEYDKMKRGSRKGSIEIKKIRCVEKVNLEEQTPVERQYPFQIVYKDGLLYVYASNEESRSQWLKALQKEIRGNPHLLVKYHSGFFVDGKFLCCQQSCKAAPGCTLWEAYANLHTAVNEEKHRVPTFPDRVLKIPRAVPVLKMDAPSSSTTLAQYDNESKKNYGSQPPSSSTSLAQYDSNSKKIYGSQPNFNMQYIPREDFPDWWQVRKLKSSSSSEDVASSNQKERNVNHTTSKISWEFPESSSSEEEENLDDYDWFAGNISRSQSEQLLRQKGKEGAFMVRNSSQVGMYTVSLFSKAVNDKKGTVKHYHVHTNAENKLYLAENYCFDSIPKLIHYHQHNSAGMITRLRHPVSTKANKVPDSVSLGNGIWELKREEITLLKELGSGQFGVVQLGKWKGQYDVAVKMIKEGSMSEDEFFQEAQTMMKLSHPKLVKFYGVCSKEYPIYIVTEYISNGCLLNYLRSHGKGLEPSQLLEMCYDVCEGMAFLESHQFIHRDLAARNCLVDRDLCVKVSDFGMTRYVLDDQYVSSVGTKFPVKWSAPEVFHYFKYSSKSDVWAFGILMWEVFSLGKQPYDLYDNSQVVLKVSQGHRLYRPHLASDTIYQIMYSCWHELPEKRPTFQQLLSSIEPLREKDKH
Method in brief: as §1

T2 sequence (Q06187 whole entry): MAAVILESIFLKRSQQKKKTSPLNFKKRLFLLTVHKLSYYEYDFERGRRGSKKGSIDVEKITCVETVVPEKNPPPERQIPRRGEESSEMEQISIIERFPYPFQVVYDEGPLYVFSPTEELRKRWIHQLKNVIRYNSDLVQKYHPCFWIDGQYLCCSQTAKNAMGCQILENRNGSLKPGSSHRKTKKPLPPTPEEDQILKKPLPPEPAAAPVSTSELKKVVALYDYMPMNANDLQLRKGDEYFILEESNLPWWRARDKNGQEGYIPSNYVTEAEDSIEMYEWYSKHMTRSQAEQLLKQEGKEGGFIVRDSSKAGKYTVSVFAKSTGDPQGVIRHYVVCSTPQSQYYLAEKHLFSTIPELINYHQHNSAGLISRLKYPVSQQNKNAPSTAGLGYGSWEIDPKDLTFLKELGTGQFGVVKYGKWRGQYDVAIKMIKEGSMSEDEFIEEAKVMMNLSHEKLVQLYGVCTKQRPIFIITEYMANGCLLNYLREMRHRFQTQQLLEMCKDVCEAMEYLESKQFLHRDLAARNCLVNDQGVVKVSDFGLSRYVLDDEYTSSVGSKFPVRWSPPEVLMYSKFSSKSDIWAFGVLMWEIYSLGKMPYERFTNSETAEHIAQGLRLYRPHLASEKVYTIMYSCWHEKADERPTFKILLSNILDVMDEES

| Structure (SMILES) | IC50 (TEC) [nM] | IC50 (Btk) [nM] | IC50 (panel of kinases) [nM] |
| --- | --- | --- | --- |
| CC(=O)N[C@@H]1CCN(c2n[nH]c3nccc(-c4ccc(CNC(=O)c5noc(C(C)C)n5)c(F)c4)c23)C1 [Example 369, N-[(4-{3-[(3R)-3-acetamidopyrrolidin-1-yl]-1H-pyrazolo[3,4-b]pyridin-4-yl}-2-fluorophenyl)methyl]-5-(propan-2-yl)-1,2,4-oxadiazole-3-carboxamide] | 1480 | 4.66 | 1140 |
| CC(C)c1nc(C(=O)NCc2ccc(-c3ccnc4[nH]nc(N5CC[C@@H](N)C5)c34)cc2F)no1 [Example 370, N-[(4-{3-[(3R)-3-aminopyrrolidin-1-yl]-1H-pyrazolo[3,4-b]pyridin-4-yl}-2-fluorophenyl)methyl]-5-(propan-2-yl)-1,2,4-oxadiazole-3-carboxamide] | 3880 | 6.98 | 1740 |
| C=CC(=O)N1CC[C@@H](Nc2n[nH]c3nccc(-c4ccc([C@@H](C)NC(=O)c5noc(C(C)(C)C)n5)c(F)c4)c23)C1 [Example 372, 5-tert-butyl-N-{(1R)-1-[2-fluoro-4-(3-{[(3R)-1-(prop-2-enoyl)pyrrolidin-3-yl]amino}-1H-pyrazolo[3,4-b]pyridin-4-yl)phenyl]ethyl}-1,2,4-oxadiazole-3-carboxamide] | 30.5 | 0.0597 | 36 |
| CC(=O)N[C@@H]1CCN(c2n[nH]c3nccc(-c4ccc(CNC(=O)c5nc(C(C)(C)C)no5)c(F)c4)c23)C1 [Example 373, N-[(4-{3-[(3R)-3-acetamidopyrrolidin-1-yl]-1H-pyrazolo[3,4-b]pyridin-4-yl}-2-fluorophenyl)methyl]-3-tert-butyl-1,2,4-oxadiazole-5-carboxamide] | 30.5 | 0.0597 | 36 |
| C=CC(=O)N1CC[C@@H](Nc2n[nH]c3nccc(-c4ccc(CNC(=O)c5ccc6c(c5)OCCO6)c(F)c4)c23)C1 [Example 374, N-{[2-fluoro-4-(3-{[(3R)-1-(prop-2-enoyl)pyrrolidin-3-yl]amino}-1H-pyrazolo[3,4-b]pyridin-4-yl)phenyl]methyl}-2,3-dihydro-1,4-benzodioxine-6-carboxamide] | 146 | 1.23 | 128 |
| C=CC(=O)N1CC[C@@H](Nc2n[nH]c3nccc(-c4ccc(CNC(=O)N5CCCCC5)c(F)c4)c23)C1 [Example 375, N-{[2-fluoro-4-(3-{[(3R)-1-(prop-2-enoyl)pyrrolidin-3-yl]amino}-1H-pyrazolo[3,4-b]pyridin-4-yl)phenyl]methyl}piperidine-1-carboxamide] | 807 | 22.1 | 98.3 |
| C=CC(=O)N1CC[C@@H](Nc2n[nH]c3nccc(-c4ccc(CNC(=O)c5nn6c(c5C)OCCC6)c(F)c4)c23)C1 [Example 376, N-{[2-fluoro-4-(3-{[(3R)-1-(prop-2-enoyl)pyrrolidin-3-yl]amino}-1H-pyrazolo[3,4-b]pyridin-4-yl)phenyl]methyl}-3-methyl-6,7-dihydro-5H-pyrazolo[5,1-b][1,3]oxazine-2-carboxamide] | 344 | 7.99 | 115 |
| C=CC(=O)N1CC[C@@H](Nc2n[nH]c3nccc(-c4ccc(CNC(=O)c5cn6ccccc6n5)c(F)c4)c23)C1 [Example 377, N-{[2-fluoro-4-(3-{[(3R)-1-(prop-2-enoyl)pyrrolidin-3-yl]amino}-1H-pyrazolo[3,4-b]pyridin-4-yl)phenyl]methyl}imidazo [1,2-a]pyridine-2-carboxamide] | 671 | 40.6 | 133 |
| C=CC(=O)N1CC[C@@H](Nc2n[nH]c3nccc(-c4ccc(CNC(=O)c5ccc6sc(C)nc6c5)c(F)c4)c23)C1 [Example 378, N-{[2-fluoro-4-(3-{[(3R)-1-(prop-2-enoyl)pyrrolidin-3-yl]amino}-1H-pyrazolo[3,4-b]pyridin-4-yl)phenyl]methyl}-2-methyl-1,3-benzothiazole-5-carboxamide] | 278 | 6.54 | 69.2 |
| C=CC(=O)N1CC[C@@H](Nc2n[nH]c3nccc(-c4ccc(CNC(=O)c5ccc6ocnc6c5)c(F)c4)c23)C1 [Example 379, (R)-N-{[2-fluoro-4-(3-{[1-(prop-2-enoyl)pyrrolidin-3-yl]amino}-1H-pyrazolo[3,4-b]pyridin-4-yl)phenyl]methyl}-1,3-benzoxazole-5-carboxamide] | 741 | 64.1 | 141 |
| C=CC(=O)N1CC[C@@H](Nc2n[nH]c3nccc(-c4ccc(CNC(=O)c5ccc6oc(C)nc6c5)c(F)c4)c23)C1 [Example 380, (R)-N-{[2-fluoro-4-(3-{[1-(prop-2-enoyl)pyrrolidin-3-yl]amino}-1H-pyrazolo[3,4-b]pyridin-4-yl)phenyl]methyl}-2-methyl-1,3-benzoxazole-5-carboxamide] | 662 | 336 | 101 |
| C=CC(=O)N[C@@H]1CCN(c2n[nH]c3nccc(-c4ccc([C@@H](C)NC(=O)c5cc(C(C)(C)O)on5)cc4)c23)C1 [Example 382, 5-(2-hydroxypropan-2-yl)-N-{(1R)-1-[4-(3-{(3R)-3-[(prop-2-enoyl)amino]pyrrolidin-1-yl}-1H-pyrazolo[3,4-b]pyridin-4-yl)phenyl]ethyl}-1,2-oxazole-3-carboxamide] | 433 | 1.81 | 435 |
| C[C@@H](NC(=O)c1nc(C(C)(C)C)no1)c1ccc(-c2ccnc3[nH]nc(N4CCCCC4)c23)cc1 [Example 384, 3-tert-butyl-N-[(1R)-1-{4-[3-(piperidin-1-yl)-1H-pyrazolo[3,4-b]pyridin-4-yl]phenyl}ethyl]-1,2,4-oxadiazole-5-carboxamide] | 3040 | 0.664 | 2040 |
| CC(C)c1noc(C(=O)N[C@H](C)c2ccc(-c3ccnc4[nH]nc(N5CCOCC5)c34)cc2)n1 [Example 389, N-[(1R)-1-{4-[3-(morpholin-4-yl)-1H-pyrazolo[3,4-b]pyridin-4-yl]phenyl}ethyl]-3-(propan-2-yl)-1,2,4-oxadiazole-5-carboxamide] | 914 | 4.05 | 502 |
| C=CC(=O)N1CC[C@@H](Nc2n[nH]c3nccc(-c4ccc(CNC(=O)c5cn6c(C)cccc6n5)c(F)c4)c23)C1 [Example 390, N-{[2-fluoro-4-(3-{[(3R)-1-(prop-2-enoyl)pyrrolidin-3-yl]amino}-1H-pyrazolo[3,4-b]pyridin-4-yl)phenyl]methyl}-5-methylimidazo[1,2-a]pyridine-2-carboxamide] | 713 | 38.1 | 162 |
| C[C@H]1CC[C@@H](Nc2n[nH]c3nccc(-c4ccc(CNC(=O)c5nc(C(C)(C)C)no5)c(F)c4)c23)CN1C(=O)N(C)C [Example 391, (2S,5R)-5-{[4-(4-{[(3-tert-butyl-1,2,4-oxadiazole-5-carbonyl)amino]methyl}-3-fluorophenyl)-1H-pyrazolo[3,4-b]pyridin-3-yl]amino}-N,N,2-trimethylpiperidine-1-carboxamide] | 776 | 0.237 | 1350 |
| CC(=O)N[C@@H]1CCN(c2n[nH]c3nccc(-c4ccc(CNC(=O)c5nc6ccccc6o5)c(F)c4)c23)C1 [Example 394, N-[(4-{3-[(3R)-3-acetamidopyrrolidin-1-yl]-1H-pyrazolo[3,4-b]pyridin-4-yl}-2-fluorophenyl)methyl]-1,3-benzoxazole-2-carboxamide] | 1890 | 63.3 | 661 |
